Like-named read-outs stand apart in the source and are kept apart here.
Experiments:
[1] = system: PC-3 cell line; experiment: Anticancer (cytotoxic) activity, MTT colorimetric assay; format: cell-based; settings: compounds 1–30 μM, n = 3, read-out: IC50 ± SEM, Anticancer Activity (PC-3 Cell line)
Protocol: Cytotoxic activity of compounds was evaluated in 96-well flat-bottomed microplates by using the standard MTT (3-[4,5-dimethylthiazole-2-yl]-2,5-diphenyl-tetrazolium bromide, MP) colorimetric assay. For this purpose, PC3 cells (Prostrate Cancer) were cultured in Dulbecco’s Modified Eagle Medium, supplemented with 10% of fetal bovine serum (FBS, PAA), 100 IU/mL of penicillin and 100 μg/mL of streptomycin in 75 cm^2 flasks, and kept in 5% CO2 incubator at 37 °C. Exponentially growing cells were harvested, counted with a haemocytometer, and diluted with a particular medium with 5% FBS. Cell culture with the concentration of 1 × 10^5 cells/mL was prepared and introduced (100 μL/well) into 96-well plates. After overnight incubation, medium was removed and 200 μL of fresh medium was added with different concentrations of compounds (1–30 μM). Stock solution, 20 mM of compounds were prepared in 100% DMSO, and the final concentration of DMSO at 30 μM is 0.15%. After 48 h, 200 μL MTT (0.5 mg/mL) was added to each well and incubated further for four hours. Subsequently, 100 μL of DMSO was added to each well. The extent of MTT reduction to formazan within cells was calculated by measuring the absorbance at 570 nm, using a microplate reader (SpectraMax plus, Molecular Devices, Sunnyvale, CA, USA). The cytotoxicity was recorded as concentration causing 50% growth inhibition (IC50) for PC3 cells. The percent inhibition was calculated by using the following formula:
% Inhibition=100-((mean of OD of test compound-mean of OD of negative control)/(mean of OD of positive control-mean of OD of negative control)×100).
The results (% inhibition) were processed by using SoftMax Pro software (Molecular Device, USA).

[2] = DPPH radical scavenging assay (in vitro antioxidant activity); settings: DPPH 300 μM, 30 min at 37 °C, NA = not active, failed to show 50% or more inhibition at 500 μM or more; for IC50: read-out: IC50 ± SEM, DPPH Radical Scavenging Assay
Protocol: Test samples were allowed to react with stable free radical, 1,1-diphenyl-2-picrylhydrazyl radical (DPPH, Wako Chemicals, Shanghai, China) for half an hour at 37 °C. Various concentrations of test samples (prepared in DMSO) were incubated with DPPH (300 μM; prepared in ethanol). After incubation, decrease in absorption was measured at 515 nm by using a microplate reader (SpectraMax plus 384). Percentage radical scavenging activity (% RSA) of samples was determined in comparison with a DMSO-treated control group. Percentage of radical scavenging activity was calculated by using the formula given in statistical analysis section.
(§1) All reactions were performed in triplicate in a final volume of 200 μL. The results were processed using SoftMax Pro 4.8 software (Molecular Devices, Sunnyvale, CA, USA) and then using MS Excel. The percentage of inhibition was calculated by the following formula:
(§2) % Inhibition=100-(OD of test sample/OD of the control)×100

[3] = molecular target: T1, β-glucuronidase (Escherichia coli, UniProt P05804); experiment: In vitro β-glucuronidase inhibition assay; format: biochemical; settings: substrate p-nitrophenyl-β-D-glucuronide, 37 °C; NA = not active, failed to show 50% or more inhibition at 500 μM or more; read-out: IC50 ± SEM, β-Glucuronidase Inhibition
T1 construct: purchased Sigma Aldrich G7396-25KU
Protocol: Results are presented here as means ± standard error mean from triplicate (n = 3) observation. IC50 Values were determined by using EZ-FIT, enzyme kinetics software by Perrella Scientific, Inc., USA.
β-Glucuronidase inhibitory activity was determined by the spectrophotometric method by measuring the absorbance at 405 nm of p-nitrophenol formed from the substrate p-nitrophenyl-β-D-glucuronide N1627-250 mg (Sigma Aldrich Co., 3050 spruce street, St. Louis, MO, USA). The total reaction volume was 250 μL. The compound (5 μL) was dissolved in DMSO (100%), which became 2% in the ultimate assay (250 μL) and similar conditions were used for standard (D-saccharic acid 1,4-lactone, Sigma Aldrich Co.). The reaction mixture contained 185 μL of 0.1 M acetate buffer, 5 μL of test compound solution, 10 μL of (1U) enzyme solution (G7396-25KU, Sigma Aldrich) was incubated at 37 °C for 30 min. The plates were read on a multiplate reader (SpectraMax plus 384) at 405 nm after the addition of 50 μL of 0.4 mM p-nitrophenyl-β-D-glucuronide. All assays were performed in triplicate. IC50 Values were calculated by using EZ-Fit software (Perrella Scientific Inc., Amherst, MA, USA). These values are the mean of three independent readings.

[4] = molecular target: T2, α-Glucosidase from Saccharomyces cerevisiae (Saccharomyces cerevisiae, UniProt P53341); experiment: In vitro α-glucosidase inhibition assay; format: biochemical; settings: pH 6.8, substrate p-nitrophenyl-α-D-glucopyranoside, NA = not active, failed to show 50% or more inhibition at 500 μM or more; for IC50: read-out: IC50 ± SEM, α-Glucosidase Inhibition
T2 construct: purchased Sigma Aldrich G0660-750UN
Protocol: α-Glucosidase inhibition assay was performed spectrophotometrically. α-Glucosidase from Saccharomyces cerevisiae (G0660-750UN, Sigma Aldrich), was dissolved in phosphate buffer (pH 6.8, 50 mM). Test compounds were dissolved in 70% DMSO. In 96-well plates, 20 μL of test sample, 20 μL of enzyme and 135 μL of buffer were added and incubated for 15 min at 37 °C. After incubation, 25 μL of p-nitrophenyl-α-D-glucopyranoside (0.7 mM, Sigma Aldrich) was added and change in absorbance was monitored for 30 min at 400 nm. Test compound was replaced with DMSO (7.5% final) in control. Acarbose (Sigma Aldrich) was used as a standard inhibitor [25, 26].
as §1, §2

T1 sequence (P05804 whole entry): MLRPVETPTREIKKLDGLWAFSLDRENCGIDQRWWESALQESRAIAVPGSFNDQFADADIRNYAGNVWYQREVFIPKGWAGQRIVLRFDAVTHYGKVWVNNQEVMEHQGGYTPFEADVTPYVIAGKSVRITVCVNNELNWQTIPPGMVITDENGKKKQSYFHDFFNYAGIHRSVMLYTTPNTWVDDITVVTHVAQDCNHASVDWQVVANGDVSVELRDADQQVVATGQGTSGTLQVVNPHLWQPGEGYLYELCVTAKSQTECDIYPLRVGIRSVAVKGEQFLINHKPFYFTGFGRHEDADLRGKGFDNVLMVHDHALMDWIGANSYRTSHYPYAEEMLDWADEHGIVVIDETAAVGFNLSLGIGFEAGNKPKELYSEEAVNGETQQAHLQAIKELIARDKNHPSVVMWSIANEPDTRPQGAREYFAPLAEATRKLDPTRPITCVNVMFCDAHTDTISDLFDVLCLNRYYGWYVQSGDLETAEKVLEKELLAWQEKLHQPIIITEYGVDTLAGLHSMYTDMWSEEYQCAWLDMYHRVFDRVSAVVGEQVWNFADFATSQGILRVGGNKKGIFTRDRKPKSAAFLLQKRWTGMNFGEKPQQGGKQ
T2 sequence (P53341 whole entry): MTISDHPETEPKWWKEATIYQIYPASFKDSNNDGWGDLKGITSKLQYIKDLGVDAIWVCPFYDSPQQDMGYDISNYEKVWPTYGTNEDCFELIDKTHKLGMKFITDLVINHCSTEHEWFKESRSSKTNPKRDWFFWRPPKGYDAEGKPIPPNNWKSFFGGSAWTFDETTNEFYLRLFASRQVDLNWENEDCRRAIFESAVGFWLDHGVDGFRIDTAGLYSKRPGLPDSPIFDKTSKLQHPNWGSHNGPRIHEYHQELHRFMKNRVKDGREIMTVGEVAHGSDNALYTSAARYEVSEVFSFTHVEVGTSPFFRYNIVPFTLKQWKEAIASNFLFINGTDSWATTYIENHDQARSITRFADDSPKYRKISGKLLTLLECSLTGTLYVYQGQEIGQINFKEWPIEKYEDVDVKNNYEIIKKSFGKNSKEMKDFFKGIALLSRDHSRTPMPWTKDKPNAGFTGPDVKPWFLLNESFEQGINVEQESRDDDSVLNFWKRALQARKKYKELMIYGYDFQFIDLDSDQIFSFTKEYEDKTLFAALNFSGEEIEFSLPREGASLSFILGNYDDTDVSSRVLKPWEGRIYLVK

Row | melting point [°C] | Compound | IC50 ([1]; Homo sapiens, PC-3, 48 h) [µM] | IC50 [3] [µM] | also measured
1 | 246 | Cc1c(-c2ccnc(N)n2)sc2sc(-c3ccnc(N)n3)c(-c3ccccc3)c12 [Compound 4c, 4,4′-(3-Methyl-4-Phenylthieno[2,3-b]Thiophene-2,5-Diyl)Dipyrimidin-2-Amine] | – | – | –
2 | 248 | Cc1c(-c2ccnc(O)n2)sc2sc(-c3ccnc(O)n3)c(-c3ccccc3)c12 [Compound 4a, 4,4′-(3-Methyl-4-Phenylthieno[2,3-b]Thiophene-2,5-Diyl)Dipyrimidin-2-Ol] | > 30 | – | –

The remaining lines, values behind:

Row | Compound | melting point [°C] | IC50 ([1]; Homo sapiens, PC-3, 48 h) [µM] | IC50 [3] [µM] | also measured
3 | Cc1c(C(=O)C=CN(C)C)sc2sc(C(=O)C=CN(C)C)c(-c3ccccc3)c12 [Compound 3, 1,1′-(3-Methyl-4-Phenylthieno[2,3-b]Thiophene-2,5-Diyl)Bis(3-(Dimethylamino)Prop-2-En-1-One)] | 250 | > 30 | – | –
4 | Cc1c(-c2cc[nH]n2)sc2sc(-c3cc[nH]n3)c(-c3ccccc3)c12 [Compound 5a, 3,3′-(3-Methyl-4-Phenylthieno[2,3-b]Thiophene-2,5-Diyl)Bis(1H-Pyrazole)] | 177 | 22.5 ± 0.1 | 2.3 ± 0.4 | IC50 ± SEM, DPPH Radical Scavenging Assay [2]: no antioxidant activity; IC50 [4]: 22 ± 0.3 µM
5 | CC(=O)N[C@@H](CS)C(=O)O [N-Acetylcysteine, reference compound] | – | – | – | IC50 [2]: 106 ± 1.1 µM
6 | 3,3′-(3-Methyl-4-Phenylthieno[2,3-b]Thiophene-2,5-Diyl)Bis(1-Phenyl-1H-Pyrazole) [Compound 5b] | – | – | 8.7 ± 0.1 | IC50 ([1]; 48 h): > 30 µM; IC50 [2]: 165 ± 2.8 µM; IC50 [4]: 58.4 ± 1.2 µM
7 | COc1cccc2c1C(=O)c1c(O)c3c(c(O)c1C2=O)C[C@@](O)(C(=O)CO)C[C@@H]3O[C@H]1C[C@H](N)[C@H](O)[C@H](C)O1 [Doxorubicin, reference compound] | – | 0.91 ± 0.1 | – | –
8 | O=C(O)[C@@H](O)[C@H]1OC(=O)[C@H](O)[C@H]1O [D-Saccharic acid 1,4-lactone, D-saccharic acid 1,4-lactone, reference compound] | – | – | 45.8 | –
9 | Cc1c(-c2ccnc3ncnn23)sc2sc(-c3ccnc4ncnn34)c(-c3ccccc3)c12 [Compound 6, 7,7′-(3-Methyl-4-Phenylthieno[2,3-b]Thiophene-2,5-Diyl)Di-[1,2, 4]Triazolo[1,5-a]Pyrimidine] | 245 | > 30 | – | –
10 | Cc1c(-c2ccnc(S)n2)sc2sc(-c3ccnc(S)n3)c(-c3ccccc3)c12 [Compound 4b, 4,4′-(3-Methyl-4-Phenylthieno[2,3-b]Thiophene-2,5-Diyl)Dipyrimidin-2-Thiol] | 247 | > 30 | 1.3 ± 0.2 | IC50 ± SEM, DPPH Radical Scavenging Assay [2]: inactive; IC50 ± SEM, α-Glucosidase Inhibition [4]: inactive
11 | Cc1c(-c2ccnc3nc4ccccc4n23)sc2sc(-c3ccnc4nc5ccccc5n34)c(-c3ccccc3)c12 [Compound 7, 2,2′-(3-Methyl-4-Phenylthieno[2,3-b]Thiophene-2,5-Diyl)Bis(Benzo[4, 5]Imidazo[1,2-a] Pyrimidine)] | 245 | > 30 | – | –
